The source of these data is article PMC10254235, “Design, Synthesis, and Anti-Cervical Cancer and Reversal of Tumor Multidrug Resistance Activity of Novel Nitrogen-Containing Heterocyclic Chalcone Derivatives” (Molecules, 2023).

The subject of one assay is P-gp. As to the kind of experiment: Western blot, P-gp expression in HeLa/DDP cells. The class given is cell-based, human. The following applies: 0.25, 0.5 and 1 μM, p > 0.05. On the procedure:
(§1) Next, the protein concentrations were determined using a BCA Protein Assay Kit (Solarbio, China). An equal amount of the proteins (12 μg) were separated using 8–12% sodium dodecyl sulfate–polyacrylamide gel electrophoresis (SDS-PAGE) and transferred to nitrocellulose membranes (Amersham Biosciences, Little Chalfont, Buckinghamshire, UK). Then, the membranes were blocked with 5% nonfat dried milk in TBS containing 1% Tween-20 for 2 h at room temperature and were incubated overnight with specific primary antibodies (CST, Boston, MA, USA) at 4 °C. After three washes in TBST, the membranes were incubated with the appropriate HRP-conjugated secondary antibodies at room temperature for 2 h. The blots were developed using enhanced chemiluminescence (Biosharp, Shanghai, China) and were detected using a PE 0723 imager (ProteinSimple, Silicon Valley, CA, USA). Each experiment was performed at least in triplicate and analyzed using Image J software (V1.8.0.112). […]
To reduce the adverse reactions caused by the fixation of drug resistance reversal agents, the concentration that reduces the proliferation rate of tumor cells by less than 10% was selected. Therefore, the inhibitory activity of compound 6f on HeLa/DDP cells was determined in the concentration ranges of 0.25, 0.5, and 1 μM combined with cisplatin. […]
Background: A western blot detects proteins with antibodies after separation by electrophoresis.

The test system of the next assay is HUVEC cells. As to the kind of experiment: In vitro HUVEC inhibitory assay (MTT). Type of assay: cell-based. The following applies: Homo sapiens, 48 h, ± SD. As to the method: (§2) HeLa and SiHa cell lines were obtained from the Procell Life Science Technology Co., Ltd. (Wuhan, China); H8 cell line was obtained from the Shanghai HonSun Biological Technology Co., Ltd. (Shanghai, China); HUVEC cell line was obtained from the Saibaikang (Shanghai) Biotechnology Co., Ltd. (Shanghai, China); HeLa/DDP cell line was obtained from the Guangzhou Jenniobio Biotechnology Co., Ltd. (Guangzhou, China). HeLa, SiHa, H8, and HeLa/DDP cells were cultured in DMEM medium (HyClone). The VEGF of 50 ng/mL was used as the promoter of the VEGFR-2 receptor on HUVEC cell membrane surfaces, and their inhibitory effects on VEGFR-2 were determined. All the mediums were supplemented with 10% FBS (HyClone, GE Healthcare, Australia). Cells were maintained at subconfluency at 37 °C in humidified air containing 5% CO2. The cells were monitored daily and maintained at 80% cell density. All compounds tested were dissolved in DMSO and then diluted by the culture medium before the treatment of cultured cells. Identification reports are available for all types of cell lines involved in this study.
(§3) The cytotoxicity of the target compounds were measured in vitro using the MTT assay. Cells grown in the logarithmic phase were counted and seeded in 96-well cell culture plates (5 × 10^3 cells per well) for 24 h to allow attachment of cells to the wall of the plate. […] Next, 20 μL of 5 mg.mL^−1 MTT solution was added to each well and cultured for 4 h. The old solution was discarded, replaced with 150 μL DMSO solution per well, and shaken for 10 min. The OD value was measured under 490 nm, and the inhibition rate was calculated. The nonlinear regression fitting of the cell growth rate was carried out using SPSS 23.0 software, and the IC50 of the compound was calculated. […] There were 6 compound holes in each group, and the experimental results were presented as the average of 3 experiments. A complete medium containing only cells was used as the blank control, whereas a complete medium without cells was the negative control group. Cisplatin and sorafenib were utilized as the positive control group, and the target compound was the experimental intervention group.
After incubation for 24 h, the cell was collected using centrifugation and washed twice using PBS chilled to 0 °C. Then, the cells were homogenized in RIPA lysis buffer and 1% PMSF, 1% mixed phosphatase inhibitor (Solarbio, Beijing, China). The lysates were incubated on ice for 30 min, intermittently vortexed every 5 min, and centrifuged at 12,000 rpm for 20 min to harvest the supernatants.

The subject of a further assay is H8 cells. In words: MTT cytotoxicity assay, normal cervical epithelial H8 cells. Type of assay: cell-based, human. As to conditions: Homo sapiens, 48 h, mean ± SD. On the procedure: as §2, §3
On the technique in general: Tetrazolium dyes change colour on reduction, which living cells bring about.

The test system of another assay is p-PI3K (Tyr458). As to the kind of experiment: Western blot, p-PI3K in HeLa cells. Type of assay: cell-based, human. The following applies: HeLa, 2, 4 and 6 μM, 24 h. As to the method: as §1
Assay [1] has as its system HeLa cells. As to the kind of experiment: MTT antiproliferative assay, HeLa cells. As to conditions: Homo sapiens, 48 h. Type of assay: cell-based, human. As to the method:
as §2, §3

The test system of a further assay is p-VEGFR-2. As to the kind of experiment: Western blot, VEGFR-2 phosphorylation in HUVEC cells. The following applies: 24 h, 6f 2, 4, 6 μM, sorafenib 4 μM, versus blank group, p < 0.05. The class given is cell-based, human.
The test system of a further assay is SiHa cells. As to the kind of experiment: MTT antiproliferative assay, SiHa cells. The class given is cell-based, human. As to conditions: Homo sapiens, 48 h, mean ± SD. As to the method:
as §2, §3

The test system of assay [2] is HeLa cells. As to the kind of experiment: Transwell migration assay. The class given is cell-based, human. As to conditions: 24 h, control 1205. As to the method:
Initially, HeLa (5 × 10^4 cells) were suspended in 200 μL of an FBS-free medium. […] The lower chamber was filled with 600 μL of medium containing 10% FBS. After incubating at 37 °C for 24 h, the cells on the top side of the transwell membrane were removed with a cotton tip. The cells trapped on the bottom side of the membrane were fixed using methanol and stained using 0.1% crystal violet solution for 30 min, respectively.

The next assay relates to Bcl-2. As to the kind of experiment: Western blot, Bcl-2 in HeLa cells. Type of assay: cell-based, human. As to conditions: HeLa, 2, 4 and 6 μM, 24 h, versus control, p < 0.05. On the procedure:
as §1
After incubation, cells were harvested and incubated using […] of Annexin-V/FITC (BD, America) in binding buffer (10 mM HEPES, 140 mM NaCl, and 2.5 mM CaCl2 at pH 7.4) at room temperature for 15 min. […] Almost 10,000 events were collected for each sample and analyzed using flow cytometry (BD, LSRFortessa, New York, NY, USA). […]

Assay [3] deals with HeLa cells. As to the kind of experiment: Apoptosis analysis, Annexin V-FITC/PI flow cytometry. The following applies: 24 h. Type of assay: cell-based, human. As to the method:
After incubation, cells were harvested and incubated using […] of Annexin-V/FITC (BD, America) in binding buffer (10 mM HEPES, 140 mM NaCl, and 2.5 mM CaCl2 at pH 7.4) at room temperature for 15 min. The PI solution was then added to the medium for another 10 min incubation. Almost 10,000 events were collected for each sample and analyzed using flow cytometry (BD, LSRFortessa, New York, NY, USA). The procedure for the remaining Western blot was the same as in Section 3.3.3.
For orientation: A flow cytometer gives signals particle by particle.

SMILES strings stand for the structures. Read-outs that look alike come from different tables or passages of the source.

For `COc1cc(O)c(C(=O)/C=C/c2ccc(CN3CCC(C)CC3)cc2)cc1CN1CCC(O)CC1` [6f, (E)-1-(2-hydroxy-5-((4-hydroxypiperidin-1-yl)methyl)-4-methoxyphenyl)-3-(4-((4-methylpiperidin-1-yl)methyl)phenyl)prop-2-en-1-one], the “P-gp expression in HeLa/DDP cells (Western blot)” value in the assay with P-gp was “did not exhibit a significant variance in P-gp expression”. Moreover, the IC50 was determined as 7.14 ± 0.91 µM with HUVEC cells; 30.1 ± 2.51 µM in the assay with H8 cells; 6.52 ± 0.42 µM with HeLa cells [1] (MTT, mean ± SD, read-out: 48h IC50 HeLa); 6.52 ± 0.42 µM in the assay on HeLa cells [1] (single agent, read-out: 48h IC50 HeLa (Table 4)); 7.88 ± 0.52 µM in the assay on SiHa cells. For the same compound, in the assay with p-PI3K (Tyr458), the “p-PI3K (Tyr458) in HeLa cells (Western blot)” value was “effective downregulation”. Further, the “phosphorylation of VEGFR-2 in HUVEC cells (Western blot)” value with p-VEGFR-2 was “significantly inhibited the phosphorylation of VEGFR-2”. Besides, the “number of migrating cells” value with HeLa cells [2] (2 μM) is given as 372; in the assay on HeLa cells [2] (4 μM) it was 132; with HeLa cells [2] (6 μM), 71. Further, in the assay with Bcl-2, the “expression of Bcl-2 (Western blot)” value is reported as “significantly downregulating the expression of Bcl-2”. Moreover, the figures for the proapoptotic rate in the assay on HeLa cells [3] (2 μM), in the assay on HeLa cells [3] (4 μM) and in the assay on HeLa cells [3] (6 μM) were 13.4%, 20.7% and 34.6%, respectively.

As a reminder, the IC50 is the concentration at which inhibition is half-maximal.
